Measured values from patent US4110327A, “2,3 Diketo-piperazinocarbonylamino alkanoic acids and derivatives” (Toyama Chemical Co., Ltd., priority 1974, dated 1978).
In brackets after ≈: the same amount, converted by molar mass.

Legend:
Proteus mirabilis = assay: MIC against clinical isolates; format: cell-based; conditions: clinical isolate, unit assumed
Proteus vulgaris 3027 = assay: MIC against standard strain, plate method; format: cell-based; conditions: Proteus vulgaris 3027, standard strain; unit assumed
Summary of the method: (§1)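 Plate-method MIC. Medium: heart infusion agar, pH 7.4. Inoculum: 10^4 cells per plate (10^6 cells/ml).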

[1] = system: Pseudomonas aeruginosa I.F.O.; assay: MIC against standard strain, plate method; format: cell-based; conditions: unit assumed
Summary of the method: as §1

[2] = system: Staphylococcus aureus 209p; assay: MIC against standard strain, plate method; format: cell-based; conditions: unit assumed
Summary of the method: as §1

Escherichia coli NIHJ = assay: MIC against standard strain, plate method; format: cell-based; conditions: unit assumed
Summary of the method: as §1

Klebsiella pneumoniae [3] = assay: MIC against standard strain, plate method; format: cell-based; conditions: unit assumed
Summary of the method: as §1

Klebsiella pneumoniae [4] = assay: MIC against clinical isolates; format: cell-based; conditions: unit assumed
Salmonella typhi-murium = assay: MIC against clinical isolates; format: cell-based; conditions: unit assumed
Proteus morganii = assay: MIC against clinical isolates; format: cell-based; conditions: clinical isolate, unit assumed
Proteus vulgaris = assay: MIC against clinical isolates; format: cell-based; conditions: clinical isolate, unit assumed
Shigella flexneri = assay: MIC against clinical isolates; format: cell-based; conditions: unit assumed
Procedure: (§2) The minimum inhibitory concentrations (MIC) was determined by the plate method disclosed in "Chemotherapy" (Japan), Vol. 16, (1968), pages 98 - 99. The culture medium used was a Heart infusion agar (pH 7.4). The number of the cells per plate used in the inoculum as 10^4 (10^6 cells/ml).
(§3) MIC was determined in the same manner as in the preceding paragraph (1).

Shigella sonnei = assay: MIC against clinical isolates; format: cell-based; conditions: unit assumed
Procedure: as §2, §3

Staphylococcus aureus = assay: MIC against clinical isolates; format: cell-based; conditions: unit assumed
Salmonella typhi = assay: MIC against clinical isolates; format: cell-based; conditions: unit assumed
Escherichia coli = assay: MIC against clinical isolates; format: cell-based; conditions: unit assumed
Proteus rettgeri = assay: MIC against clinical isolates; format: cell-based; conditions: clinical isolate, unit assumed
Pseudomonas aeruginosa = assay: MIC against clinical isolates; format: cell-based; conditions: unit assumed
β-lactamase = assay: Resistant activity against β-lactamase, iodometric assay; format: biochemical, Pseudomonas aeruginosa GN 238; conditions: relative to Potassium Penicillin G = 100
Procedure: (3) Resistant activity against β-lactamase, Pseudomonas aergionan GN 238:
The resistant activity of each compound against β-lactamase was measured in the manner described below.
β-Lactamase was prepared from Pseudomonas aeruginosa GN 238. This microorganism was cultured in 100 ml of a medium containing 2 g of yeast extract, 10 g of polypeptone, 2 g of glucose, 7 g of disodium hydrogen phosphate, 2 g of potassium dihydrogen phosphate, 1.2 g of ammonium sulfate and 0.4 g of magnesium sulfate, per liter, in a 500-ml Erlenmeyer flask for 6 hrs. at 37° C with shaking. The resulting cells were collected by centrifugation (5,000 r.p.m. × 10 min.), washed three times with 0.1 M phosphate buffer (pH 7.0). Subsequently, the cells were subjected to sonication (20 KHz, 20 min.) and then centrifuged at 15,000 r.p.m. for 60 min. By using the supernatant of enzyme fluid, the resistance of each compound against β-lactamase was determined by the iodometric assay method. Each numeral shown in Table 7 is a relative activity value calculated by assuming as 100 the activity of the control Potassium Penicillin G.

[5] = clinical isolate GN (number not given; Table 5-3)

## CC1(C)S[C@@H]2[C@H](NC(=O)[C@H](N)c3ccccc3)C(=O)N2[C@H]1C(=O)O [Sodium Ampicillin, SodiumAmpicillin, reference compound]
Proteus mirabilis
  MIC: < 1.57 µg/mL
Proteus vulgaris 3027
  MIC: > 200 µg/mL
[1]
  MIC: > 200 µg/mL
[2]
  MIC: < 1.57 µg/mL
Escherichia coli NIHJ
  MIC: < 1.57 µg/mL
Klebsiella pneumoniae [3]
  MIC: 50 µg/mL
Klebsiella pneumoniae [4]; clinical isolate GN 917
  MIC: 25 µg/mL
Klebsiella pneumoniae [4]; clinical isolate GN 3850
  MIC: 50 µg/mL
Klebsiella pneumoniae [4]; clinical isolate GN 4081
  MIC: > 200 µg/mL
Klebsiella pneumoniae [4]; clinical isolate GN 4117
  MIC: > 200 µg/mL
Salmonella typhi-murium; clinical isolate SL 858
  MIC: 3.13 µg/mL
Salmonella typhi-murium; clinical isolate SL 2136
  MIC: > 200 µg/mL
Proteus morganii
  MIC: < 1.57 µg/mL
Proteus vulgaris
  MIC: < 1.5 µg/mL
Shigella flexneri; clinical isolate JS 11839
  MIC: 1.57 µg/mL
Shigella sonnei; clinical isolate JS 11232
  MIC: > 200 µg/mL
Shigella sonnei; clinical isolate JS 11755
  MIC: 6.25 µg/mL
Staphylococcus aureus; clinical isolate F-2
  MIC: 0.79 µg/mL
Staphylococcus aureus; clinical isolate F-5
  MIC: 50 µg/mL
Staphylococcus aureus; clinical isolate MS 8588
  MIC: 6.25 µg/mL
Staphylococcus aureus; clinical isolate MS 8619
  MIC: < 0.4 µg/mL
Salmonella typhi; clinical isolate SL 819
  MIC: 1.56 µg/mL
Salmonella typhi; clinical isolate SL 2169
  MIC: 0.78 µg/mL
Escherichia coli; clinical isolate GN 3452
  MIC: 6.25 µg/mL
Escherichia coli; clinical isolate GN 3481
  MIC: 6.25 µg/mL
Escherichia coli; clinical isolate GN 3611
  MIC: > 200 µg/mL
Escherichia coli; clinical isolate K-1
  MIC: 6.25 µg/mL
Escherichia coli; clinical isolate K-2
  MIC: 6.25 µg/mL
Escherichia coli; clinical isolate K-3
  MIC: > 200 µg/mL
Proteus rettgeri
  MIC: 200 µg/mL
Pseudomonas aeruginosa; clinical isolate GN 82
  MIC: > 200 µg/mL
Pseudomonas aeruginosa; clinical isolate GN 163
  MIC: > 200 µg/mL
Pseudomonas aeruginosa; clinical isolate GN 221
  MIC: > 200 µg/mL
Pseudomonas aeruginosa; clinical isolate GN 376
  MIC: > 200 µg/mL
Pseudomonas aeruginosa; clinical isolate GN 383
  MIC: > 200 µg/mL
Pseudomonas aeruginosa; clinical isolate GN 1035
  MIC: > 200 µg/mL
Pseudomonas aeruginosa; clinical isolate GN 1091
  MIC: > 200 µg/mL
Pseudomonas aeruginosa; clinical isolate GN 2565
  MIC: > 200 µg/mL
Pseudomonas aeruginosa; clinical isolate GN 2987
  MIC: > 200 µg/mL
Pseudomonas aeruginosa; [5]
  MIC: > 200 µg/mL
Pseudomonas aeruginosa; clinical isolate S-1
  MIC: > 200 µg/mL
Pseudomonas aeruginosa; clinical isolate S-2
  MIC: > 200 µg/mL
Pseudomonas aeruginosa; clinical isolate S-3
  MIC: > 200 µg/mL
Pseudomonas aeruginosa; clinical isolate S-4
  MIC: > 200 µg/mL

## CC1(C)S[C@@H]2[C@H](NC(=O)Cc3ccccc3)C(=O)N2[C@H]1C(=O)O [Potassium Penicillin G, reference compound]
β-lactamase
  Relative activity: 100%

## CN1CCN(C(=O)NC(C(=O)NC2C(=O)N3C(C(=O)O)=C(CSc4nnnn4C)CSC23)c2ccccc2)C(=O)C1=O (single isomer, unassigned) [compound 63]
Proteus mirabilis
  MIC: 3.13 µg/mL (≈ 5.08 µM)
Proteus vulgaris 3027
  MIC: 1.57 µg/mL (≈ 2.55 µM)
[1]
  MIC: 25 µg/mL (≈ 40.6 µM)
[2]
  MIC: < 0.79 µg/mL
Escherichia coli NIHJ
  MIC: < 0.79 µg/mL
Klebsiella pneumoniae [3]
  MIC: < 0.79 µg/mL
Klebsiella pneumoniae [4]; clinical isolate GN 917
  MIC: 3.13 µg/mL (≈ 5.08 µM)
Klebsiella pneumoniae [4]; clinical isolate GN 4081
  MIC: 6.25 µg/mL (≈ 10.2 µM)
Klebsiella pneumoniae [4]; clinical isolate GN 4117
  MIC: 6.25 µg/mL (≈ 10.2 µM)
Proteus morganii
  MIC: 3.13 µg/mL (≈ 5.08 µM)
Proteus vulgaris
  MIC: 1.56 µg/mL (≈ 2.53 µM)
Staphylococcus aureus; clinical isolate F-1
  MIC: 3.13 µg/mL (≈ 5.08 µM)
Staphylococcus aureus; clinical isolate F-2
  MIC: 0.78 µg/mL (≈ 1.27 µM)
Staphylococcus aureus; clinical isolate F-3
  MIC: 1.56 µg/mL (≈ 2.53 µM)
Staphylococcus aureus; clinical isolate F-4
  MIC: 1.56 µg/mL (≈ 2.53 µM)
Staphylococcus aureus; clinical isolate F-5
  MIC: 12.5 µg/mL (≈ 20.3 µM)
Staphylococcus aureus; clinical isolate MS 8588
  MIC: 1.56 µg/mL (≈ 2.53 µM)
Staphylococcus aureus; clinical isolate MS 8596
  MIC: 1.56 µg/mL (≈ 2.53 µM)
Staphylococcus aureus; clinical isolate MS 8619
  MIC: 0.78 µg/mL (≈ 1.27 µM)
Staphylococcus aureus; clinical isolate MS 8684
  MIC: 1.56 µg/mL (≈ 2.53 µM)
Staphylococcus aureus; clinical isolate MS 8713
  MIC: 1.56 µg/mL (≈ 2.53 µM)
Escherichia coli; clinical isolate GN 3435
  MIC: 3.13 µg/mL (≈ 5.08 µM)
Escherichia coli; clinical isolate GN 3452
  MIC: 12.5 µg/mL (≈ 20.3 µM)
Escherichia coli; clinical isolate GN 3465
  MIC: 25 µg/mL (≈ 40.6 µM)
Escherichia coli; clinical isolate GN 3481
  MIC: 3.13 µg/mL (≈ 5.08 µM)
Escherichia coli; clinical isolate GN 3611
  MIC: 100 µg/mL (≈ 162 µM)
Escherichia coli; clinical isolate K-1
  MIC: 3.13 µg/mL (≈ 5.08 µM)
Escherichia coli; clinical isolate K-2
  MIC: 6.25 µg/mL (≈ 10.2 µM)
Escherichia coli; clinical isolate K-3
  MIC: 50 µg/mL (≈ 81.2 µM)
Escherichia coli; clinical isolate K-4
  MIC: 6.25 µg/mL (≈ 10.2 µM)
Proteus rettgeri
  MIC: 3.13 µg/mL (≈ 5.08 µM)
Pseudomonas aeruginosa; clinical isolate GN 82
  MIC: 50 µg/mL (≈ 81.2 µM)
Pseudomonas aeruginosa; clinical isolate GN 163
  MIC: 25 µg/mL (≈ 40.6 µM)
Pseudomonas aeruginosa; clinical isolate GN 221
  MIC: 25 µg/mL (≈ 40.6 µM)
Pseudomonas aeruginosa; clinical isolate GN 244
  MIC: 50 µg/mL (≈ 81.2 µM)
Pseudomonas aeruginosa; clinical isolate GN 376
  MIC: 50 µg/mL (≈ 81.2 µM)
Pseudomonas aeruginosa; clinical isolate GN 383
  MIC: 25 µg/mL (≈ 40.6 µM)
Pseudomonas aeruginosa; clinical isolate GN 1035
  MIC: 100 µg/mL (≈ 162 µM)
Pseudomonas aeruginosa; clinical isolate GN 1091
  MIC: 50 µg/mL (≈ 81.2 µM)
Pseudomonas aeruginosa; clinical isolate GN 2565
  MIC: 50 µg/mL (≈ 81.2 µM)
Pseudomonas aeruginosa; clinical isolate GN 2987
  MIC: 25 µg/mL (≈ 40.6 µM)
Pseudomonas aeruginosa; clinical isolate S-1
  MIC: 100 µg/mL (≈ 162 µM)
Pseudomonas aeruginosa; clinical isolate S-2
  MIC: 100 µg/mL (≈ 162 µM)
Pseudomonas aeruginosa; clinical isolate S-3
  MIC: 100 µg/mL (≈ 162 µM)
Pseudomonas aeruginosa; clinical isolate S-4
  MIC: 100 µg/mL (≈ 162 µM)

## CCCCCCCCN1CCN(C(=O)N[C@@H](C(=O)N[C@@H]2C(=O)N3[C@@H]2SC(C)(C)[C@@H]3C(=O)O)c2ccccc2)C(=O)C1 [compound 16]
Proteus mirabilis
  MIC: 1.56 µg/mL (≈ 2.65 µM)
Proteus vulgaris 3027
  MIC: < 1.57 µg/mL
[1]
  MIC: 12.5 µg/mL (≈ 21.3 µM)
[2]
  MIC: < 1.57 µg/mL
Escherichia coli NIHJ
  MIC: < 1.57 µg/mL
Klebsiella pneumoniae [4]; clinical isolate GN 917
  MIC: 12.5 µg/mL (≈ 21.3 µM)
Klebsiella pneumoniae [4]; clinical isolate GN 4081
  MIC: 25 µg/mL (≈ 42.5 µM)
Klebsiella pneumoniae [4]; clinical isolate GN 4117
  MIC: 25 µg/mL (≈ 42.5 µM)
Salmonella typhi-murium; clinical isolate SL 858
  MIC: 1.57 µg/mL (≈ 2.67 µM)
Salmonella typhi-murium; clinical isolate SL 2136
  MIC: 100 µg/mL (≈ 170 µM)
Proteus morganii
  MIC: 1.56 µg/mL (≈ 2.65 µM)
Proteus vulgaris
  MIC: 0.8 µg/mL (≈ 1.36 µM)
Shigella flexneri; clinical isolate JS 11215
  MIC: 6.25 µg/mL (≈ 10.6 µM)
Shigella flexneri; clinical isolate JS 11839
  MIC: 0.79 µg/mL (≈ 1.34 µM)
Shigella sonnei; clinical isolate JS 11232
  MIC: 6.25 µg/mL (≈ 10.6 µM)
Staphylococcus aureus; clinical isolate F-1
  MIC: 6.25 µg/mL (≈ 10.6 µM)
Staphylococcus aureus; clinical isolate F-2
  MIC: 0.79 µg/mL (≈ 1.34 µM)
Staphylococcus aureus; clinical isolate F-4
  MIC: 6.25 µg/mL (≈ 10.6 µM)
Staphylococcus aureus; clinical isolate F-5
  MIC: 100 µg/mL (≈ 170 µM)
Staphylococcus aureus; clinical isolate MS 8619
  MIC: < 0.4 µg/mL
Salmonella typhi; clinical isolate SL 819
  MIC: 3.13 µg/mL (≈ 5.33 µM)
Salmonella typhi; clinical isolate SL 2169
  MIC: 1.57 µg/mL (≈ 2.67 µM)
Escherichia coli; clinical isolate GN 3465
  MIC: 12.5 µg/mL (≈ 21.3 µM)
Escherichia coli; clinical isolate K-3
  MIC: 50 µg/mL (≈ 85.1 µM)
Proteus rettgeri
  MIC: 6.25 µg/mL (≈ 10.6 µM)
Pseudomonas aeruginosa; clinical isolate GN 82
  MIC: 6.25 µg/mL (≈ 10.6 µM)
Pseudomonas aeruginosa; clinical isolate GN 163
  MIC: 12.5 µg/mL (≈ 21.3 µM)
Pseudomonas aeruginosa; clinical isolate GN 221
  MIC: 25 µg/mL (≈ 42.5 µM)
Pseudomonas aeruginosa; clinical isolate GN 376
  MIC: 25 µg/mL (≈ 42.5 µM)
Pseudomonas aeruginosa; clinical isolate GN 383
  MIC: 25 µg/mL (≈ 42.5 µM)
Pseudomonas aeruginosa; clinical isolate GN 1035
  MIC: 25 µg/mL (≈ 42.5 µM)
Pseudomonas aeruginosa; clinical isolate GN 1091
  MIC: 12.5 µg/mL (≈ 21.3 µM)
Pseudomonas aeruginosa; clinical isolate GN 2565
  MIC: 12.5 µg/mL (≈ 21.3 µM)
Pseudomonas aeruginosa; [5]
  MIC: 12.5 µg/mL (≈ 21.3 µM)
Pseudomonas aeruginosa; clinical isolate S-1
  MIC: 12.5 µg/mL (≈ 21.3 µM)
Pseudomonas aeruginosa; clinical isolate S-2
  MIC: 25 µg/mL (≈ 42.5 µM)
Pseudomonas aeruginosa; clinical isolate S-3
  MIC: 50 µg/mL (≈ 85.1 µM)
Pseudomonas aeruginosa; clinical isolate S-4
  MIC: 25 µg/mL (≈ 42.5 µM)
